Reference: paper PMC5218480 (PLoS ONE, 2017)

System: MV-4-11 cells
Experiment: Gene expression microarray analysis (Affymetrix PrimeView) and GSEA
Type: cell-based, human
Parameters: RFU PODN (11730768_x_at) / Fold change /veh PODN (11730768_x_at) / RFU LINC00158 (11744669_a_at) / Fold change /veh LINC00158 (11744669_a_at) / RFU DUSP10 (11751237_a_at) / Fold change /veh DUSP10 (11751237_a_at) / RFU ID3 (11757404_x_at) / Fold change /veh ID3 (11757404_x_at) / RFU PLEKHG5 (11737974_s_at) / Fold change /veh PLEKHG5 (11737974_s_at) / RFU LRRC4B (11730491_at) / Fold change /veh LRRC4B (11730491_at) / RFU GIMAP4 (11747438_a_at) / Fold change /veh GIMAP4 (11747438_a_at) / RFU KRT8 (11758183_x_at) / Fold change /veh KRT8 (11758183_x_at) / RFU CNN1 (11734310_a_at) / Fold change /veh CNN1 (11734310_a_at) / RFU VPS37D (11726825_at) / Fold change /veh VPS37D (11726825_at) / RFU C10orf10 (11716522_x_at) / Fold change /veh C10orf10 (11716522_x_at) / RFU KIR2DL2 /// KIR2DL4 /// KIR2DL5A /// KIR2DL5B /// KIR2DS1 /// KIR2DS2 /// KIR2DS3 /// KIR2DS4 /// KIR3DL3 /// KIR3DL3 /// KIR3DS1 (11738374_at) / Fold change /veh KIR2DL2 /// KIR2DL4 /// KIR2DL5A /// KIR2DL5B /// KIR2DS1 /// KIR2DS2 /// KIR2DS3 /// KIR2DS4 /// KIR3DL3 /// KIR3DL3 /// KIR3DS1 (11738374_at) / RFU C1QL1 (11718748_at) / Fold change /veh C1QL1 (11718748_at) / RFU TMPRSS4 (11747572_a_at) / Fold change /veh TMPRSS4 (11747572_a_at) / RFU HAMP (11756126_x_at) / Fold change /veh HAMP (11756126_x_at) / RFU RNFT2 (11725882_a_at) / Fold change /veh RNFT2 (11725882_a_at) / RFU NR4A2 (11747474_a_at) / Fold change /veh NR4A2 (11747474_a_at) / RFU ABCC12 (11746883_a_at) / Fold change /veh ABCC12 (11746883_a_at) / RFU TMEM136 (11760407_x_at) / Fold change /veh TMEM136 (11760407_x_at) / RFU CLDN22 /// WWC2 (11732394_at) / Fold change /veh CLDN22 /// WWC2 (11732394_at) / RFU HLA-DPB1 (11760878_x_at) / Fold change /veh HLA-DPB1 (11760878_x_at) / RFU SPINT1 (11716480_a_at) / Fold change /veh SPINT1 (11716480_a_at) / RFU GAP43 (11754022_s_at) / Fold change /veh GAP43 (11754022_s_at) / RFU A4GNT (11735810_at) / Fold change /veh A4GNT (11735810_at) / RFU PRB3 (11715151_x_at) / Fold change /veh PRB3 (11715151_x_at) / RFU TUBB4B (11761932_at) / Fold change /veh TUBB4B (11761932_at) / RFU CAPN14 (11732068_a_at) / Fold change /veh CAPN14 (11732068_a_at) / RFU TMCC2 (11721928_a_at) / Fold change /veh TMCC2 (11721928_a_at) / RFU IRGQ (11745062_a_at) / Fold change /veh IRGQ (11745062_a_at) / RFU FAM174B (11720279_a_at) / Fold change /veh FAM174B (11720279_a_at) / RFU TMPRSS4 (11748680_a_at) / Fold change /veh TMPRSS4 (11748680_a_at) / RFU FAM212B (11763350_a_at) / Fold change /veh FAM212B (11763350_a_at) / RFU PLEKHG5 (11743358_a_at) / Fold change /veh PLEKHG5 (11743358_a_at) / RFU ZSCAN30 (11745921_a_at) / Fold change /veh ZSCAN30 (11745921_a_at) / RFU CMKLR1 (11741424_a_at) / Fold change /veh CMKLR1 (11741424_a_at) / RFU LOC101060620 /// MAPK8IP1 (11723275_at) / Fold change /veh LOC101060620 /// MAPK8IP1 (11723275_at) / RFU SPTSSB (11747773_x_at) / Fold change /veh SPTSSB (11747773_x_at) / RFU PRSS12 (11739890_at) / Fold change /veh PRSS12 (11739890_at) / RFU BIN1 (11741810_x_at) / Fold change /veh BIN1 (11741810_x_at) / RFU WNT11 (11732464_a_at) / Fold change /veh WNT11 (11732464_a_at) / RFU C10orf10 (11716521_a_at) / Fold change /veh C10orf10 (11716521_a_at) / RFU C5orf56 (11738089_at) / Fold change /veh C5orf56 (11738089_at) / RFU CYB561 (11721691_x_at) / Fold change /veh CYB561 (11721691_x_at) / RFU ANKRD19P (11752326_a_at) / Fold change /veh ANKRD19P (11752326_a_at) / RFU OR2T12 /// OR2T33 /// OR2T8 (11738714_s_at) / Fold change /veh OR2T12 /// OR2T33 /// OR2T8 (11738714_s_at) / RFU VCAN (11748164_a_at) / Fold change /veh VCAN (11748164_a_at) / RFU JSRP1 (11732532_at) / Fold change /veh JSRP1 (11732532_at) / RFU KRTAP10-11 (11738290_x_at) / Fold change /veh KRTAP10-11 (11738290_x_at) / RFU MYO3A (11730013_a_at) / Fold change /veh MYO3A (11730013_a_at) / RFU EBF3 (11725865_a_at) / Fold change /veh EBF3 (11725865_a_at) / RFU CAMK2N1 (11719241_x_at) / Fold change /veh CAMK2N1 (11719241_x_at) / RFU C5orf56 (11738088_a_at) / Fold change /veh C5orf56 (11738088_a_at) / RFU OLFML3 (11715873_a_at) / Fold change /veh OLFML3 (11715873_a_at) / RFU LOC100653217 /// NTM (11731650_a_at) / Fold change /veh LOC100653217 /// NTM (11731650_a_at) / RFU MAPK11 (11762145_a_at) / Fold change /veh MAPK11 (11762145_a_at) / RFU FIZ1 (11724087_x_at) / Fold change /veh FIZ1 (11724087_x_at) / RFU OASL (11726364_x_at) / Fold change /veh OASL (11726364_x_at) / RFU SOX15 (11748057_x_at) / Fold change /veh SOX15 (11748057_x_at) / RFU CD79A (11719716_a_at) / Fold change /veh CD79A (11719716_a_at) / RFU HIST1H1D (11736915_at) / Fold change /veh HIST1H1D (11736915_at) / RFU CASKIN2 (11723855_a_at) / Fold change /veh CASKIN2 (11723855_a_at) / RFU LOC730098 (11760151_x_at) / Fold change /veh LOC730098 (11760151_x_at) / RFU OR4N2 (11742367_at) / Fold change /veh OR4N2 (11742367_at) / RFU PRRT2 (11749266_a_at) / Fold change /veh PRRT2 (11749266_a_at) / RFU SNX32 (11753110_a_at) / Fold change /veh SNX32 (11753110_a_at) / RFU CDHR5 (11726645_a_at) / Fold change /veh CDHR5 (11726645_a_at) / RFU RCAN1 (11760418_a_at) / Fold change /veh RCAN1 (11760418_a_at) / RFU FAM167A (11723789_a_at) / Fold change /veh FAM167A (11723789_a_at) / RFU FAM26E (11764081_at) / Fold change /veh FAM26E (11764081_at) / RFU ISYNA1 (11749810_s_at) / Fold change /veh ISYNA1 (11749810_s_at) / RFU ACY1 (11761880_at) / Fold change /veh ACY1 (11761880_at) / RFU 11764098_at / Fold change /veh 11764098_at / RFU SAMD14 (11745864_x_at) / Fold change /veh SAMD14 (11745864_x_at) / RFU NPB (11741838_a_at) / Fold change /veh NPB (11741838_a_at) / RFU TMPRSS6 (11731388_a_at) / Fold change /veh TMPRSS6 (11731388_a_at) / RFU KRTAP10-2 (11738614_at) / Fold change /veh KRTAP10-2 (11738614_at) / RFU ARHGAP8 /// PRR5-ARHGAP8 (11727945_x_at) / Fold change /veh ARHGAP8 /// PRR5-ARHGAP8 (11727945_x_at) / RFU KRTAP5-7 /// NADSYN1 (11734609_at) / Fold change /veh KRTAP5-7 /// NADSYN1 (11734609_at) / RFU RASL12 (11751679_a_at) / Fold change /veh RASL12 (11751679_a_at) / RFU CDKN2B (11736163_a_at) / Fold change /veh CDKN2B (11736163_a_at) / RFU PRF1 (11729649_at) / Fold change /veh PRF1 (11729649_at) / RFU, ZNF638 /// ZNF638-IT1 / Fold change vs veh, ZNF638 /// ZNF638-IT1 / RFU, PANK3 / Fold change vs veh, PANK3 / RFU, SH3YL1 / Fold change vs veh, SH3YL1 / RFU, ZEB2 / Fold change vs veh, ZEB2 / RFU, NRIP1 / Fold change vs veh, NRIP1 / RFU, PTTG1IP / Fold change vs veh, PTTG1IP / RFU, CAPN2 / Fold change vs veh, CAPN2 / RFU, MED14 / Fold change vs veh, MED14 / RFU, SNORA58 / Fold change vs veh, SNORA58 / RFU, C1orf63 / Fold change vs veh, C1orf63 / RFU, LRRFIP1 / Fold change vs veh, LRRFIP1 / RFU, NDUFAF7 / Fold change vs veh, NDUFAF7 / RFU, SLC12A2 / Fold change vs veh, SLC12A2 / RFU, IBTK / Fold change vs veh, IBTK / RFU, ESF1 / Fold change vs veh, ESF1 / Fold change vs veh, TMEM50B / RFU, TAOK1 / Fold change vs veh, TAOK1 / RFU, ACBD3 / Fold change vs veh, ACBD3 / RFU, TMA16 / Fold change vs veh, TMA16 / RFU, RWDD3 / Fold change vs veh, RWDD3 / RFU, BCAT1 / Fold change vs veh, BCAT1 / RFU, EDEM3 / Fold change vs veh, EDEM3 / RFU, TMEM33 / Fold change vs veh, TMEM33 / RFU, WDR75 / Fold change vs veh, WDR75 / RFU, AHCTF1 / Fold change vs veh, AHCTF1 / RFU, TFRC / Fold change vs veh, TFRC / RFU, ZDHHC17 / Fold change vs veh, ZDHHC17 / RFU, NOM1 / Fold change vs veh, NOM1 / RFU, ARL8B / Fold change vs veh, ARL8B / RFU, ZBTB11 / Fold change vs veh, ZBTB11 / RFU, TAMM41 / Fold change vs veh, TAMM41 / RFU, KIAA1704 /// LOC100996395 / Fold change vs veh, KIAA1704 /// LOC100996395 / RFU, ING1 / Fold change vs veh, ING1 / RFU, TRMT61B / Fold change vs veh, TRMT61B / RFU, FUBP3 / Fold change vs veh, FUBP3 / RFU, TP53 / Fold change vs veh, TP53 / RFU, TNKS2 / Fold change vs veh, TNKS2 / RFU, ZFP14 / Fold change vs veh, ZFP14 / RFU, ACTR2 / Fold change vs veh, ACTR2 / RFU, PPP3R1 / Fold change vs veh, PPP3R1 / RFU, PIK3R1 / Fold change vs veh, PIK3R1 / RFU, HNRNPA1 / Fold change vs veh, HNRNPA1 / RFU, RNF170 / Fold change vs veh, RNF170 / RFU, ZNF28 / Fold change vs veh, ZNF28 / RFU, RNGTT / Fold change vs veh, RNGTT / RFU, OGT / Fold change vs veh, OGT / RFU, BRD1 / Fold change vs veh, BRD1 / RFU, MARS / Fold change vs veh, MARS / RFU, ZNF655 / Fold change vs veh, ZNF655 / RFU, FAHD1 / Fold change vs veh, FAHD1 / RFU, BDP1 / Fold change vs veh, BDP1 / RFU, LRRCC1 / Fold change vs veh, LRRCC1 / RFU, ARID1A / Fold change vs veh, ARID1A / RFU, ZNF146 / Fold change vs veh, ZNF146 / RFU, ZNF330 / Fold change vs veh, ZNF330 / RFU, GPN3 / Fold change vs veh, GPN3 / RFU, C9orf123 / Fold change vs veh, C9orf123 / RFU, N4BP2L2 / Fold change vs veh, N4BP2L2 / RFU, ARFIP1 / Fold change vs veh, ARFIP1 / RFU, FAM179B / Fold change vs veh, FAM179B / RFU, BCL10 / Fold change vs veh, BCL10 / RFU, UHRF1BP1L / Fold change vs veh, UHRF1BP1L / RFU, BET1 / Fold change vs veh, BET1 / RFU, CNOT2 / Fold change vs veh, CNOT2 / RFU, ZNF268 / Fold change vs veh, ZNF268 / Fold change vs veh, ZNF507 / RFU, DGCR2 / Fold change vs veh, DGCR2 / RFU, WDSUB1 / Fold change vs veh, WDSUB1 / Fold change vs veh, HSP90B1 /// MIR3652 / RFU, ADSS / Fold change vs veh, ADSS / RFU, GK / Fold change vs veh, GK / RFU, ZNF148 / Fold change vs veh, ZNF148 / RFU, TAF9 / Fold change vs veh, TAF9 / RFU, SLC1A5 / Fold change vs veh, SLC1A5 / RFU, SLMO2 / Fold change vs veh, SLMO2 / RFU, ABCC4 / Fold change vs veh, ABCC4 / RFU, LOC101060439 /// RAP1B / Fold change vs veh, LOC101060439 /// RAP1B / RFU, RFX7 / Fold change vs veh, RFX7 / RFU, GTPBP10 / Fold change vs veh, GTPBP10 / RFU, CNEP1R1 / Fold change vs veh, CNEP1R1 / RFU, BIVM-ERCC5 /// ERCC5 / Fold change vs veh, BIVM-ERCC5 /// ERCC5 / RFU, ILF3 / Fold change vs veh, ILF3 / RFU 11762660_at / Fold change /veh 11762660_at / RFU VCAN (11757783_s_at) / Fold change /veh VCAN (11757783_s_at) / RFU DDX43 (11728927_at) / Fold change /veh DDX43 (11728927_at) / RFU KRT8 (11758188_x_at) / Fold change /veh KRT8 (11758188_x_at) / RFU NKD1 (11759106_at) / Fold change /veh NKD1 (11759106_at) / RFU SRD5A1 (11742802_a_at) / Fold change /veh SRD5A1 (11742802_a_at) / RFU TPSAB1 /// TPSB2 (11721975_s_at) / Fold change /veh TPSAB1 /// TPSB2 (11721975_s_at) / RFU GSTM3 (11746129_a_at) / Fold change /veh GSTM3 (11746129_a_at) / RFU IL23R (11737362_x_at) / Fold change /veh IL23R (11737362_x_at) / RFU TMEM51 (11727254_a_at) / Fold change /veh TMEM51 (11727254_a_at) / RFU PIWIL2 (11732686_x_at) / Fold change /veh PIWIL2 (11732686_x_at) / RFU ORM1 (11744905_x_at) / Fold change /veh ORM1 (11744905_x_at) / RFU CCDC152 (11743942_at) / Fold change /veh CCDC152 (11743942_at) / RFU ECM1 (11717891_a_at) / Fold change /veh ECM1 (11717891_a_at) / RFU IL23R (11748794_a_at) / Fold change /veh IL23R (11748794_a_at) / RFU TNFAIP8L3 (11732012_x_at) / Fold change /veh TNFAIP8L3 (11732012_x_at) / RFU MBOAT4 (11741988_at) / Fold change /veh MBOAT4 (11741988_at) / RFU 11764193_at / Fold change /veh 11764193_at / RFU TMEM53 (11763286_at) / Fold change /veh TMEM53 (11763286_at) / RFU MAGEB2 (11727129_at) / Fold change /veh MAGEB2 (11727129_at) / RFU TMEM200A (11744735_a_at) / Fold change /veh TMEM200A (11744735_a_at) / RFU CCDC152 (11751479_a_at) / Fold change /veh CCDC152 (11751479_a_at) / RFU FAM211A (11726209_a_at) / Fold change /veh FAM211A (11726209_a_at) / RFU RGS16 (11746705_a_at) / Fold change /veh RGS16 (11746705_a_at) / RFU VCAN (11755009_s_at) / Fold change /veh VCAN (11755009_s_at) / RFU RHOB (11743442_s_at) / Fold change /veh RHOB (11743442_s_at) / RFU RGS16 (11720943_a_at) / Fold change /veh RGS16 (11720943_a_at) / RFU RGS16 (11720944_at) / Fold change /veh RGS16 (11720944_at) / RFU, VPS4B / Fold change vs veh, VPS4B / RFU, CREB1 / Fold change vs veh, CREB1 / RFU, DNAJC13 / Fold change vs veh, DNAJC13 / RFU, GNAQ / Fold change vs veh, GNAQ / RFU, CDK5R1 / Fold change vs veh, CDK5R1 / RFU, ZRANB3 / Fold change vs veh, ZRANB3 / RFU, CUL4A / Fold change vs veh, CUL4A / RFU, CCNY / Fold change vs veh, CCNY / RFU, UFL1 / Fold change vs veh, UFL1 / RFU, COG3 / Fold change vs veh, COG3 / RFU, DIAPH2 / Fold change vs veh, DIAPH2 / RFU, SKA2 / Fold change vs veh, SKA2 / RFU, AFF3 / Fold change vs veh, AFF3 / RFU, LMF1 / Fold change vs veh, LMF1 / RFU, IPO11 / Fold change vs veh, IPO11 / RFU, DFFB / Fold change vs veh, DFFB / RFU, FOXP1 / Fold change vs veh, FOXP1 / RFU, CARD8 / Fold change vs veh, CARD8 / RFU, STRN3 / Fold change vs veh, STRN3 / RFU, ADK / Fold change vs veh, ADK / RFU, RASSF2 / Fold change vs veh, RASSF2 / RFU, WIPF1 / Fold change vs veh, WIPF1 / RFU, LARP1B / Fold change vs veh, LARP1B / RFU, RASA1 / Fold change vs veh, RASA1 / RFU, RB1 / Fold change vs veh, RB1 / RFU, PPFIA1 / Fold change vs veh, PPFIA1 / RFU, MAT2A / Fold change vs veh, MAT2A / RFU, CCT5 / Fold change vs veh, CCT5 / RFU, WDR92 / Fold change vs veh, WDR92 / RFU, CUX1 / Fold change vs veh, CUX1 / RFU, TTC7A / Fold change vs veh, TTC7A / RFU, TMEM135 / Fold change vs veh, TMEM135 / RFU, DEPTOR / Fold change vs veh, DEPTOR / RFU, CPM / Fold change vs veh, CPM / RFU, DNAJB6 / Fold change vs veh, DNAJB6 / RFU, CACNA2D3 / Fold change vs veh, CACNA2D3 / RFU, DTX4 / Fold change vs veh, DTX4 / RFU, TFCP2 / Fold change vs veh, TFCP2 / RFU, GMCL1 /// GMCL1P1 / Fold change vs veh, GMCL1 /// GMCL1P1 / RFU, AEBP2 / Fold change vs veh, AEBP2 / RFU, SNHG1 /// SNORD22 /// SNORD25 /// SNORD26 /// SNORD27 /// SNORD28 /// SNORD29 /// SNORD31 / Fold change vs veh, SNHG1 /// SNORD22 /// SNORD25 /// SNORD26 /// SNORD27 /// SNORD28 /// SNORD29 /// SNORD31 / Fold change (Aza/veh), C12orf56 (ProbeSet 11735607_a_at) / Fold change (ACY-1035/veh), C12orf56 (ProbeSet 11735607_a_at) / Fold change (Aza/veh), FGFR1OP (ProbeSet 11751329_s_at) / Fold change (ACY-1035/veh), FGFR1OP (ProbeSet 11751329_s_at) / Fold change (Aza/veh), VPS36 (ProbeSet 11739960_a_at) / Fold change (ACY-1035/veh), VPS36 (ProbeSet 11739960_a_at) / RFU SYPL1 (11715823_x_at) / Fold change /veh SYPL1 (11715823_x_at) / RFU IGFBP7 (11715501_s_at) / Fold change /veh IGFBP7 (11715501_s_at) / RFU REEP3 (11722064_at) / Fold change /veh REEP3 (11722064_at) / RFU IGLL1 (11728026_x_at) / Fold change /veh IGLL1 (11728026_x_at): dose or concentration left out as unconfirmed
Conditions: MV-4-11 cells, 48 hours

Nc1ncn([C@@H]2O[C@H](CO)[C@@H](O)[C@H]2O)c(=O)n1 [azacitidine]
Fold change /veh TMEM200A (11744735_a_at): 1.56
